In the series the test system is CCRIS mutagenicity, Ames/micronucleus/aberration tests. The series is described as follows: CCRIS mutagenicity studies.
Setting [1] is: Test System: AMES SALMONELLA TYPHIMURIUM, Strain/Indicator: TA98, Metabolic Activation: NONE, Method: PREINCUBATION

Structures are written as SMILES. Activity calls are given as the source filed them. No rule for the calls is given here.

For `Nc1ccc2c(c1)-c1ccccc1C2`, the mutagenic call is “active; positive” (Test System: AMES SALMONELLA TYPHIMURIUM, Strain/Indicator: TA98, Metabolic Activation: RAT, LIVER, S-9, AROCLOR 1254 (2 OR 4%), Method: STANDARD PLATE); “active; positive” (Test System: AMES SALMONELLA TYPHIMURIUM, Strain/Indicator: TA100, Metabolic Activation: RAT, LIVER, S-9, AROCLOR 1254 (4%), Method: STANDARD PLATE); “inactive; negative” (Test System: AMES SALMONELLA TYPHIMURIUM, Strain/Indicator: TA1535, Metabolic Activation: RAT, LIVER, S-9, AROCLOR 1254 (4%), Method: STANDARD PLATE); “active; positive” (Test System: AMES SALMONELLA TYPHIMURIUM, Strain/Indicator: TA1537, Metabolic Activation: RAT, LIVER, S-9, AROCLOR 1254 (4%), Method: STANDARD PLATE).
As to `COc1cccc2c1C(=O)c1c(O)c3c(c(O)c1C2=O)CC(O)(C(=O)CO)CC3OC1CC(N2CCOCC2C#N)C(O)C(C)O1` (stereo unspecified), the mutagenic call is, setting by setting: (Test System: AMES SALMONELLA TYPHIMURIUM, Strain/Indicator: TA100, Metabolic Activation: RAT, LIVER, S-9, AROCLOR 1254) “inactive; negative”; (Test System: CHINESE HAMSTER V-79, Strain/Indicator: V-79/8-AZAGUANINE, Metabolic Activation: NONE) “active; positive”; (Test System: UDS RAT HEPATOCYTES, Strain/Indicator: THY INCORP, Metabolic Activation: NONE, Method: AUTOMATIC COLONY COUNTER) “active; positive”.
For `O=C(O)c1cc(Cl)cc(Cl)c1`, the mutagenic call was “inactive; negative” under setting [1]; “inactive; negative” (Test System: AMES SALMONELLA TYPHIMURIUM, Strain/Indicator: TA98, Metabolic Activation: RAT LIVER S-9, PCB, Method: PREINCUBATION); “inactive; negative” (Test System: AMES SALMONELLA TYPHIMURIUM, Strain/Indicator: TA100, Metabolic Activation: NONE, Method: PREINCUBATION); “inactive; negative” (Test System: AMES SALMONELLA TYPHIMURIUM, Strain/Indicator: TA100, Metabolic Activation: RAT LIVER S-9, PCB, Method: PREINCUBATION); “inactive; negative” (Test System: AMES SALMONELLA TYPHIMURIUM, Strain/Indicator: TA104, Metabolic Activation: NONE, Method: PREINCUBATION); “inactive; negative” (Test System: AMES SALMONELLA TYPHIMURIUM, Strain/Indicator: TA104, Metabolic Activation: RAT LIVER S-9, PCB, Method: PREINCUBATION). For the same compound, the mutagenic call reads like this: (Test System: E.COLI, Strain/Indicator: WP2 UVRA, Metabolic Activation: NONE, Method: PREINCUBATION) “inactive; negative”; (Test System: E.COLI, Strain/Indicator: WP2 UVRA, Metabolic Activation: RAT LIVER S-9, PCB, Method: PREINCUBATION) “inactive; negative”.
With `Cc1cnc2ccc3c(nc(N[C@@H]4O[C@H](C(=O)O)[C@@H](O)[C@H](O)[C@H]4O)n3C)c2n1`, the mutagenic call is, setting by setting: under setting [1], “inactive; negative”; (Test System: AMES SALMONELLA TYPHIMURIUM, Strain/Indicator: TA98, Metabolic Activation: RAT, LIVER, S-9, AROCLOR 1254, Method: PREINCUBATION) “inactive; negative”.
For `N[C@H](CSSC[C@@H](N)C(=O)O)C(=O)O`, the mutagenic call (Test System: AMES SALMONELLA TYPHIMURIUM, Strain/Indicator: TA98, Metabolic Activation: RAT LIVER S-9, CHLOROPHENE, Method: STANDARD PLATE (COMPOUND HEATED AT 250 DEGREES CELSIUS FOR 20 MIN)) is “active; positive”.
On to `OCc1c2ccccc2cc2ccccc12`, for which the mutagenic call reads like this: (End Point: In vitro chromosomal aberrations, Test System: Chinese hamster lung (CHL/IU) cells, Metabolic Activation: Rat, Liver, S9, Phenobarbital and 5,6-benzoflavone) “active; positive (structural changes) (weak response). precipitation in the culture medi”; (Test System: AMES SALMONELLA TYPHIMURIUM, Strain/Indicator: TA98, Metabolic Activation: HUMAN, LIVER, CYTOSOL, PAPS, Method: PREINCUBATION) “active; positive”; (Test System: Ames Salmonella typhimurium, Strain/Indicator: TA98, Metabolic Activation: None, Method: Preincubation) “inactive; negative”; (Test System: Ames Salmonella typhimurium, Strain/Indicator: TA98, Metabolic Activation: Rat, Liver, S9, Sodium phenobarbital and 5,6-benzoflavone (10%), Method: Preincubation) “inactive; negative”; (Test System: Ames Salmonella typhimurium, Strain/Indicator: TA98, Metabolic Activation: Rat, Liver, S9, Sodium phenobarbital and 5,6-benzoflavone (30%), Method: Preincubation) “inactive; negative”; (Test System: Ames Salmonella typhimurium, Strain/Indicator: TA100, Metabolic Activation: None, Method: Preincubation) “inactive; negative”. For the same compound, the mutagenic call (Test System: Ames Salmonella typhimurium, Strain/Indicator: TA100, Metabolic Activation: Rat, Liver, S9, Sodium phenobarbital and 5,6-benzoflavone (10%), Method: Preincubation) was “inactive; negative”; the mutagenic call (Test System: Ames Salmonella typhimurium, Strain/Indicator: TA100, Metabolic Activation: Rat, Liver, S9, Sodium phenobarbital and 5,6-benzoflavone (30%), Method: Preincubation) was “active; positive”; the mutagenic call (Test System: Ames Salmonella typhimurium, Strain/Indicator: TA1535, Metabolic Activation: None, Method: Preincubation) is “inactive; negative”; the mutagenic call (Test System: Ames Salmonella typhimurium, Strain/Indicator: TA1535, Metabolic Activation: Rat, Liver, S9, Sodium phenobarbital and 5,6-benzoflavone (10%), Method: Preincubation) is “inactive; negative”; the mutagenic call (Test System: Ames Salmonella typhimurium, Strain/Indicator: TA1535, Metabolic Activation: Rat, Liver, S9, Sodium phenobarbital and 5,6-benzoflavone (30%), Method: Preincubation) was “inactive; negative”; the mutagenic call (Test System: Ames Salmonella typhimurium, Strain/Indicator: TA1537, Metabolic Activation: None, Method: Preincubation) is “inactive; negative”. Moreover, the mutagenic call (Test System: Ames Salmonella typhimurium, Strain/Indicator: TA1537, Metabolic Activation: Rat, Liver, S9, Sodium phenobarbital and 5,6-benzoflavone (10%), Method: Preincubation) is “active; positive (weak)”; the mutagenic call (Test System: Ames Salmonella typhimurium, Strain/Indicator: TA1537, Metabolic Activation: Rat, Liver, S9, Sodium phenobarbital and 5,6-benzoflavone (30%), Method: Preincubation) is “inactive; negative”; the mutagenic call (Test System: E. coli, Strain/Indicator: WP2uvrA/pKM101, Metabolic Activation: Rat, Liver, S9, Sodium phenobarbital and 5,6-benzoflavone (30%), Method: Preincubation) is “inactive; negative”.
In the case of `CC(=O)c1ccc(N)cc1`, the mutagenic call (Test System: E. COLI, Strain/Indicator: WP2 UVRA, Metabolic Activation: NONE, Method: FLUCTUATION TEST) was “inactive; negative”.
Turning to `O=C(Nc1ccc2c(c1)C=C(S(=O)(=O)O)/C(=N/Nc1ccc(N=Nc3ccc(S(=O)(=O)O)cc3)cc1S(=O)(=O)O)C2=O)Nc1ccc2c(c1)C=C(S(=O)(=O)O)/C(=N/Nc1ccc(N=Nc3ccc(S(=O)(=O)O)cc3)cc1S(=O)(=O)O)C2=O`, the mutagenic call is “inactive; negative. reevaluation of results: negative” (Test System: MOUSE LYMPHOMA, Strain/Indicator: L5178Y (TK+/TK-), Metabolic Activation: NONE, Method: SUSPENSION/PLATE) and “inactive; negative. reevaluation of results: negative” (Test System: MOUSE LYMPHOMA, Strain/Indicator: L5178Y (TK+/TK-), Metabolic Activation: RAT, LIVER, S-9, AROCLOR 1254, Method: SUSPENSION/PLATE).

The values are drawn from PubChem BioAssay AID1259407 (Chemical Carcinogenesis Research Information System (CCRIS), 2018).
